# Measurements: ChEMBL document CHEMBL1201862, “PubChem BioAssay data set” (2004)
# Activity calls are given as the source filed them.
# How the values were obtained:
# [1] = target: Genome polyprotein (dengue virus type 2, UniProt P29990); experiment: Dengue-2 NS5 methyltransferase inhibitors, primary screen, biochemical, confirmation dose response (AID 588689); assay type: functional
# [2] = target: Phospholipase A2 (Homo sapiens, UniProt P04054); assay type: functional;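 also: confirmatory dose-response counterscreen on phospholipase A2, testing hits that came from an ultra-high-throughput screen for ATG4B inhibitors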
# Chain of Phospholipase A2 (P04054 whole entry): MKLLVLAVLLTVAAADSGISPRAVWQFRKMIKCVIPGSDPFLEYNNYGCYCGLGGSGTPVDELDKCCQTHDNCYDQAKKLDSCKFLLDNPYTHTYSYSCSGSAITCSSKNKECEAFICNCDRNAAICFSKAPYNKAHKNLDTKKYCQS
# [3] = target: T1, Protein RecA (Mycobacterium tuberculosis, UniProt P9WHJ3); experiment: Fluorescence Cell-Free Homogeneous Dose Retest to Identify Inhibitors of RecA-Intein Splicing Activity. [Related pubchem assays (depositor defined):AID2097, AID2223, AID489010, AID492950]; assay type: functional
# T1 sequence (P9WHJ3 whole entry): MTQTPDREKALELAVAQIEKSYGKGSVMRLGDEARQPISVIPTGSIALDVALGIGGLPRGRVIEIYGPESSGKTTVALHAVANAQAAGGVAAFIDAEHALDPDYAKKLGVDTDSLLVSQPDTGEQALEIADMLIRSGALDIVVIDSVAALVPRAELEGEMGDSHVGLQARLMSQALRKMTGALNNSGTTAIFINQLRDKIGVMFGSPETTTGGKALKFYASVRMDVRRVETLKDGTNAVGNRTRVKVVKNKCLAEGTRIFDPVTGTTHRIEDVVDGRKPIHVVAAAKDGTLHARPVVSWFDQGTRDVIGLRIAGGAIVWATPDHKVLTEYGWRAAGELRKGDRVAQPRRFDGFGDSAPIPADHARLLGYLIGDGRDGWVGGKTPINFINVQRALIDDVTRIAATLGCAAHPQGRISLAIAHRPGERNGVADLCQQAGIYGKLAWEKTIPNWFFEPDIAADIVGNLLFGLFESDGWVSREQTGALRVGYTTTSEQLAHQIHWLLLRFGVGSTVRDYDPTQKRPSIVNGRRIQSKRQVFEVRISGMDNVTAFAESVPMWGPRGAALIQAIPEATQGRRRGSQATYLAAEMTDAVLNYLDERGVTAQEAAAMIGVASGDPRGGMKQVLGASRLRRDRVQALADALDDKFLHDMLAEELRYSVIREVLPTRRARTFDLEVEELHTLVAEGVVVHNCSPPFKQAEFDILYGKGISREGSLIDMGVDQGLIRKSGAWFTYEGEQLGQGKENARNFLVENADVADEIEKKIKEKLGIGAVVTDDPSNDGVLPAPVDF
# [4] = target: T2, Replicative DNA helicase DnaB (Mycobacterium tuberculosis, UniProt P9WMR3); experiment: DnaB intein splicing inhibitors, dose response, biochemical, cell-free fluorescence (AID 449749); assay type: functional
# T2 sequence (P9WMR3 whole entry): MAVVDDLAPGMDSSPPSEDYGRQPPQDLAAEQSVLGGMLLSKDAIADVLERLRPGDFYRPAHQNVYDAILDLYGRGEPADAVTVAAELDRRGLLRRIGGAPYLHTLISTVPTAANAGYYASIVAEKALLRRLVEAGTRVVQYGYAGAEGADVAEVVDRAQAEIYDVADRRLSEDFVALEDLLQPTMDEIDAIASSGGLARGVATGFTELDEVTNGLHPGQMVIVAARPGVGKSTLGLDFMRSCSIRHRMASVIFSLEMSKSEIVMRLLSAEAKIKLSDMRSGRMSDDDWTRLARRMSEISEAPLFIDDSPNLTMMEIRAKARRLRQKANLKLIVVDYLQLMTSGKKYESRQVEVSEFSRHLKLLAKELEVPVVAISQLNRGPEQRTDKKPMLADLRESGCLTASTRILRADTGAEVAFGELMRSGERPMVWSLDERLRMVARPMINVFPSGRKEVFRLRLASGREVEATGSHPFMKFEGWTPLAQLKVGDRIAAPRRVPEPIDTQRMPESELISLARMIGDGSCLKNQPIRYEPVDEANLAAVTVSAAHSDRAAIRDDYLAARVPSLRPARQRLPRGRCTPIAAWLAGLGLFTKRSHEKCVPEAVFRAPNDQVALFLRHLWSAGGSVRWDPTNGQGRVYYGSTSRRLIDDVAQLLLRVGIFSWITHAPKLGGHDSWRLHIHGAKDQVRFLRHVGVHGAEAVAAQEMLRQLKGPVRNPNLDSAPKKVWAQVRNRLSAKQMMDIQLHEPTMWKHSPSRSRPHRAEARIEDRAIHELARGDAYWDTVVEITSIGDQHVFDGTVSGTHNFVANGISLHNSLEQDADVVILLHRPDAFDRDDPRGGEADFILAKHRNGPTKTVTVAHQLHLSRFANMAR
# [5] = target: DNA (cytosine-5)-methyltransferase 1 (Homo sapiens, UniProt P26358); experiment: DNMT1 methyltransferase inhibitors, confirmation, biochemical, fluorescent molecular beacon (AID 602386); assay type: functional
# [6] = target: Cysteine protease ATG4B (Homo sapiens, UniProt Q9Y4P1); assay type: functional;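 also: Fluorescence-based dose-response confirmation assay measuring inhibition of ATG4B activity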
# [7] = target: Rho-associated protein kinase 1 (Homo sapiens, UniProt Q13464); assay type: functional;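 also: measured within a broad kinome-wide panel profiling many kinases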
# Chain of Rho-associated protein kinase 1 (Q13464 whole entry, the tested form may be a part): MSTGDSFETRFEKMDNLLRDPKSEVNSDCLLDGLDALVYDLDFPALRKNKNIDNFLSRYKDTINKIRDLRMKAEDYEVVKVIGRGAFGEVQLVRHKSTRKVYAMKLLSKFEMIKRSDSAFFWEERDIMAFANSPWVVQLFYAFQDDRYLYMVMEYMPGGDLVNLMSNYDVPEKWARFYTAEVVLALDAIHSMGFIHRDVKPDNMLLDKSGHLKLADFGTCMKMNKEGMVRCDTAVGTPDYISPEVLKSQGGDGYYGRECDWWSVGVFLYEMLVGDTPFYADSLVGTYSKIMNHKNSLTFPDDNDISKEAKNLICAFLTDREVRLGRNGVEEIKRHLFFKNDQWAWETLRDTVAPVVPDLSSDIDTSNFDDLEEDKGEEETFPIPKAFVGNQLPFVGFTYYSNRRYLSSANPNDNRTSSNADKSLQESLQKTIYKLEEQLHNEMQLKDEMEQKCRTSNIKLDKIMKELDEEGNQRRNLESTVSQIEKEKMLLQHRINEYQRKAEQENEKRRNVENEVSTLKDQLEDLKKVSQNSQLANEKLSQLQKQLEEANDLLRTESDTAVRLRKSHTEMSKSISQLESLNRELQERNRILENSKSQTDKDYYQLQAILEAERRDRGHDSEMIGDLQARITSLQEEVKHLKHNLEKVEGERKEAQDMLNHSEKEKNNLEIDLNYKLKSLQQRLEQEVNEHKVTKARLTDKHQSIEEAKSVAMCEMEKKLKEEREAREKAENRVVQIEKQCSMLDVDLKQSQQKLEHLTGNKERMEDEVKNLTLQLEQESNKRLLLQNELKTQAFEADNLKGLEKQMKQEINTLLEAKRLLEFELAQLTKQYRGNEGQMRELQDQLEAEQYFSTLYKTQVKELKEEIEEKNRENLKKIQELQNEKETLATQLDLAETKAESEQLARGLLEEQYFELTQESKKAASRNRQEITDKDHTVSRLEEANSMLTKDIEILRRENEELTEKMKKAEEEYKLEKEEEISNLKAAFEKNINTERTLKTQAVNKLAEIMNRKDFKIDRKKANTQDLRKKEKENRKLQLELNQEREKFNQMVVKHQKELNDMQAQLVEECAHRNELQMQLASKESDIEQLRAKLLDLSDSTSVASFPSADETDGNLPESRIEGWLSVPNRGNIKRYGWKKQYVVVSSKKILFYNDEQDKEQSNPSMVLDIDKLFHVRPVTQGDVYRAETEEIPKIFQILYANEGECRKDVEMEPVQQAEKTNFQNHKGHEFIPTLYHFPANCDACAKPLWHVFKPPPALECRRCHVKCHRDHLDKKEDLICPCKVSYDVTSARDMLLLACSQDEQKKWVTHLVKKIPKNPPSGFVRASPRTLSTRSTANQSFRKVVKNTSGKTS
# [8] = target: LIM domain kinase 1 (Homo sapiens, UniProt P53667); experiment: Navigating the Kinome. Panel member name: LIMK1; assay type: functional
# Chain of LIM domain kinase 1 (P53667 whole entry, the tested form may be a part): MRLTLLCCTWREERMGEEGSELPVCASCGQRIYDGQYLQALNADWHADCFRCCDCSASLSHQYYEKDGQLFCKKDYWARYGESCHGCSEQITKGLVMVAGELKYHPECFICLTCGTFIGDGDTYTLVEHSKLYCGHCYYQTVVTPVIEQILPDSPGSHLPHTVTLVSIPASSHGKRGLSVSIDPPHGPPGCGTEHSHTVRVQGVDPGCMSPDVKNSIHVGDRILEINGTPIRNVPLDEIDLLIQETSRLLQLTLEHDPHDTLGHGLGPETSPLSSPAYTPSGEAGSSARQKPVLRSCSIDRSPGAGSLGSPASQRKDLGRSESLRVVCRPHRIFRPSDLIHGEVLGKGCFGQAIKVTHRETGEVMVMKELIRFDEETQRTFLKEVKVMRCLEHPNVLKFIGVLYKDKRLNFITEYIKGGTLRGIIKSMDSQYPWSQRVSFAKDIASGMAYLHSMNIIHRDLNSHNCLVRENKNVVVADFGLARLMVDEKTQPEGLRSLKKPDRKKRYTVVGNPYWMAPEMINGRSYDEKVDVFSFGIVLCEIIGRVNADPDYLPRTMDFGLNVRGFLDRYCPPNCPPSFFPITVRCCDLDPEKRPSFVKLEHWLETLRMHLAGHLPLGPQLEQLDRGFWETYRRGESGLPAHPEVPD
# [9] = target: Dual specificity tyrosine-phosphorylation-regulated kinase 1A (Homo sapiens, UniProt Q13627); assay type: functional;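 also: measured against DYRK1A as one member of a broad kinome profiling panel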
# [10] = target: Mitogen-activated protein kinase 9 (Homo sapiens, UniProt P45984); assay type: functional;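 also: value from a kinome panel profiling assay, MAPK9 panel entry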
# [11] = target: Cyclin-dependent kinase 5 (Homo sapiens, UniProt Q00535); assay type: functional;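 also: CDK5 measured as one member of a kinase profiling panel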
# Chain of Cyclin-dependent kinase 5 (Q00535 whole entry): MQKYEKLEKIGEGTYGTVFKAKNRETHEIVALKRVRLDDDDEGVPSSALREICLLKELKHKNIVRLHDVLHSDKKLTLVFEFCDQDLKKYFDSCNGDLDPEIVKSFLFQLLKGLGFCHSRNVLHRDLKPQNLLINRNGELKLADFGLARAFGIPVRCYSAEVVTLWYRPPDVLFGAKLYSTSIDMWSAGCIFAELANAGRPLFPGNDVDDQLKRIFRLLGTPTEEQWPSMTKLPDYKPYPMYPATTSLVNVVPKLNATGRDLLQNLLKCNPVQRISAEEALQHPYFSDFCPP
# [12] = target: Serine/threonine-protein kinase PAK 1 (Homo sapiens, UniProt Q13153); assay type: functional
# [13] = target: MAP kinase-activated protein kinase 3 (Homo sapiens, UniProt Q16644); assay type: functional;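 also: value comes from a kinome-wide profiling panel in which MAPKAPK3 is one of the panel members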
# Chain of MAP kinase-activated protein kinase 3 (Q16644 whole entry): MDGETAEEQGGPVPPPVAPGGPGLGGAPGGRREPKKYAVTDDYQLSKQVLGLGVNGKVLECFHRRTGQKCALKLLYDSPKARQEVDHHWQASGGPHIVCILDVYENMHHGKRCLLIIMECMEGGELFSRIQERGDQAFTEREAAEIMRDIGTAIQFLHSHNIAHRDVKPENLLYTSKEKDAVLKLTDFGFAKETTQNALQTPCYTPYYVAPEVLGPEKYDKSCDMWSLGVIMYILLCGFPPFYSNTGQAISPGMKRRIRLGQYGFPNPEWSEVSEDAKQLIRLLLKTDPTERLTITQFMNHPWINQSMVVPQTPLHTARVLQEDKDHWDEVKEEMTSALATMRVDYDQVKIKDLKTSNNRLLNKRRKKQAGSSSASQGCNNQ
# [14] = target: Serine/threonine-protein kinase D2 (Homo sapiens, UniProt Q9BZL6); assay type: functional;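 also: measured against PRKD2 as one member of a kinome-wide kinase profiling panel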
# [15] = target: RAC-gamma serine/threonine-protein kinase (Homo sapiens, UniProt Q9Y243); assay type: functional
# [16] = target: Cyclin-dependent kinase 1 (Homo sapiens, UniProt P06493); assay type: functional;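 also: Kinome-wide panel profiling, with the target listed as panel member CDC2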
# [17] = target: T3, Serine/threonine-protein kinase Nek2 (Homo sapiens, UniProt P51955); assay type: functional
# T3 sequence (P51955 whole entry): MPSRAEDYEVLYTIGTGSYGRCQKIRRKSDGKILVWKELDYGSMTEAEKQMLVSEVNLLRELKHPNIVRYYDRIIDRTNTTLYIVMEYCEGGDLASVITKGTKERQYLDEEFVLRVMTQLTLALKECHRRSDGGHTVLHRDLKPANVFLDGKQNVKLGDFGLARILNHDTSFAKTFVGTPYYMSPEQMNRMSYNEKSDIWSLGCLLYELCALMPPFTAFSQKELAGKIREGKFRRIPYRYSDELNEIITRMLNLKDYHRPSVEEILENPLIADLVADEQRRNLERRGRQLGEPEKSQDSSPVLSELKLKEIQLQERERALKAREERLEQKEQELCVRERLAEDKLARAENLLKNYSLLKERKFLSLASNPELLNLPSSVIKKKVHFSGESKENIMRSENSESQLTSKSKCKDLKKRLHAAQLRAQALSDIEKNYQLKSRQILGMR
# [18] = target: Serine/threonine-protein kinase pim-1 (Homo sapiens, UniProt P11309); assay type: functional
# [19] = target: Serine/threonine-protein kinase MRCK alpha (Homo sapiens, UniProt Q5VT25); assay type: functional
# [20] = target: Interleukin-1 receptor-associated kinase 4 (Homo sapiens, UniProt Q9NWZ3); assay type: functional
# Chain of Interleukin-1 receptor-associated kinase 4 (Q9NWZ3 whole entry): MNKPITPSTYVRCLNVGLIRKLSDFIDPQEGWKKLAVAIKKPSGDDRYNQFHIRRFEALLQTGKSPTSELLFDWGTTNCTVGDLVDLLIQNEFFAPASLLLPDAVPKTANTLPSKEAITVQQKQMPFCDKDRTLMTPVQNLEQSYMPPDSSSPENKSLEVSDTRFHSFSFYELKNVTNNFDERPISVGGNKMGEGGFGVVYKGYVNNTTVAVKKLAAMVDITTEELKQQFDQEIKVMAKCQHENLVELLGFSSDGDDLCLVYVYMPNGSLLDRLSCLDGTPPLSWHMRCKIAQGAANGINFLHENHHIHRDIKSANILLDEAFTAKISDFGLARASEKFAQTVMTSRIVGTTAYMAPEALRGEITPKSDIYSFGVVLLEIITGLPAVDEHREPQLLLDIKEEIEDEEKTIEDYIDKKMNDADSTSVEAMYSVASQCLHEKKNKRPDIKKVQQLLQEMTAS
# [21] = target: Prothrombin (Bos taurus, UniProt P00735); experiment: thrombin inhibition, dose response, biochemical, fluorescence polarization, uHTS hits (AID 602369); assay type: functional
# [22] = target: Serine/threonine-protein phosphatase PP1-alpha catalytic subunit (Homo sapiens, UniProt P62136); experiment: PP1 phosphatase inhibitors, dose response, biochemical, fluorescence (AID 2403);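 also: phosphatase turnover of OMFP into fluorescent 3-O-methylfluorescein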
# Chain of Serine/threonine-protein phosphatase PP1-alpha catalytic subunit (P62136 whole entry): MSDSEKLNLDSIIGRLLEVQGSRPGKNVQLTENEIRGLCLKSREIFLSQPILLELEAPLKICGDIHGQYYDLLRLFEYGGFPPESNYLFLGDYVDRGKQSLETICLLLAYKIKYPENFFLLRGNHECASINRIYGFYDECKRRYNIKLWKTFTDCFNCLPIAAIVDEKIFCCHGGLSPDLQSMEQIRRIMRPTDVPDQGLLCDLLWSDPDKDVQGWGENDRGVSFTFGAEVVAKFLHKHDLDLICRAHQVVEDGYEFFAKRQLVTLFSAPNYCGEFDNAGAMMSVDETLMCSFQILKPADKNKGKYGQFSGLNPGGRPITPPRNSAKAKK
# [23] = target: Serine/threonine-protein phosphatase (Homo sapiens, UniProt Q9BPW0); experiment: Counterscreen for inhibitors of PP1: fluorescence-based biochemical high throughput dose response assay to identify inhibitors of Protein Phosphatase 5 (PP5). [Related pubchem assays: 2034 (Summary (PP5 inhibitors)), 1987 (PP5 inhibitors in singlate), 2235 (PP1 inhibitors in singlate)]
# [24] = target: X-box-binding protein 1 (Homo sapiens, UniProt P17861); assay type: functional, Cricetulus griseus;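 also: confirmatory dose-response counter-screen serving a CHOP assay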
# [25] = target: 72 kDa type IV collagenase (Homo sapiens, UniProt P08253); experiment: Dose Response validation of uHTS RPN11 inhibitor hits using a MMP-2 Fluorescence assay.; assay type: functional
# [26] = target: 26S proteasome non-ATPase regulatory subunit 14 (Homo sapiens, UniProt O00487); experiment: inhibition of proteasome subunit RPN11 – biochemical, fluorescence polarization, uHTS hits, confirmation (AID 602368); assay type: functional
# [27] = target: Casein kinase II subunit alpha (Homo sapiens, UniProt P68400); assay type: functional
# [28] = target: Serine/threonine-protein kinase PLK3 (Homo sapiens, UniProt Q9H4B4); assay type: functional
# Chain of Serine/threonine-protein kinase PLK3 (Q9H4B4 whole entry): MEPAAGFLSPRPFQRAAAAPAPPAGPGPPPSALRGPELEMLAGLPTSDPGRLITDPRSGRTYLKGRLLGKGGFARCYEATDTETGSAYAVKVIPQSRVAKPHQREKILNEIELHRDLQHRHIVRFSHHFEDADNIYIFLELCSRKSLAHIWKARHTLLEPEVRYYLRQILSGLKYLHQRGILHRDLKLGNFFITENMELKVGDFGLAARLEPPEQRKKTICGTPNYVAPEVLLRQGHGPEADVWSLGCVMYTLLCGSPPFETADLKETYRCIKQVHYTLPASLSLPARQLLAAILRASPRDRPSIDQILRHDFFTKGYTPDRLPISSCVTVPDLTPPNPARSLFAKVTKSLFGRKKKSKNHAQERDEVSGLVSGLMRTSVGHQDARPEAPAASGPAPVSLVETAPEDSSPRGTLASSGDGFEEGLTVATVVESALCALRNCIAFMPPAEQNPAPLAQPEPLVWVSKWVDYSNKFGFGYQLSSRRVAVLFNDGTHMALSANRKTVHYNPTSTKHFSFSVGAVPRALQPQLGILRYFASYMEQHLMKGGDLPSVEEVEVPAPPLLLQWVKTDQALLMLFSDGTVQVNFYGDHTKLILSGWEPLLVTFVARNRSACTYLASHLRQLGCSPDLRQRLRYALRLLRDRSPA
# [29] = target: Ribosomal protein S6 kinase alpha-3 (Homo sapiens, UniProt P51812); assay type: functional;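 also: measured within a kinome-wide profiling panel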
# Chain of Ribosomal protein S6 kinase alpha-3 (P51812 whole entry): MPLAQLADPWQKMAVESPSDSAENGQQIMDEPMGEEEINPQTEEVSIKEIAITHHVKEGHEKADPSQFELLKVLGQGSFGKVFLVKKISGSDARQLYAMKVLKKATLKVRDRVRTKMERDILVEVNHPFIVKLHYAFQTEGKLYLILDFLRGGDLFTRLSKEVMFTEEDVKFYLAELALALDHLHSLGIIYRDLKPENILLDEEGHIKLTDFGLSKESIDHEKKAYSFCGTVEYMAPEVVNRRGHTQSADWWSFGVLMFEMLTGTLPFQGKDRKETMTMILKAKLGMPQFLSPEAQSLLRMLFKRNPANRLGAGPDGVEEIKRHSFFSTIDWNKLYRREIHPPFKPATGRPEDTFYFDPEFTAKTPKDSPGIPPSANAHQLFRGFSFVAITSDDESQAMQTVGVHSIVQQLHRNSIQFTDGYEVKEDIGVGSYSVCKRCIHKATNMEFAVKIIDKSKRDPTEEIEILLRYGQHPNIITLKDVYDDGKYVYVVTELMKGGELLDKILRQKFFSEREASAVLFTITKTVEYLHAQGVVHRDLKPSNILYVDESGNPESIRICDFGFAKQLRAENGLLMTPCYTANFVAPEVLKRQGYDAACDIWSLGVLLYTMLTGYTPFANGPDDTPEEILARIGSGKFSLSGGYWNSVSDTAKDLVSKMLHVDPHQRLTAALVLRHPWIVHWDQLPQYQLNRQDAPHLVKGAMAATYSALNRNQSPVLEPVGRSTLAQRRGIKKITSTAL
# [30] = target: MAP kinase-activated protein kinase 2 (Homo sapiens, UniProt P49137); assay type: functional;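 also: measured as one member of a kinome-wide kinase panel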
# [31] = target: Beta Lactamase (Pseudomonas aeruginosa, UniProt Q932Y6); experiment: beta-lactamase reporter inhibitor potency, dose response, artefact control for TLR9-MyD88 binding inhibitor project, BLA reporter cells, FRET fluorescence (AID 588341); assay type: cell-based;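 also: cell based assay in CHO-K1 cells stably expressing beta-lactamase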
# [32] = system: CHO; experiment: cytotoxicity in TLR9-MyD88 CHO cells, dose response, cytotoxicity control for TLR9-MyD88 binding inhibitor project, cell-based, luminescence (AID 588339); assay type: functional, hamster; conditions: Cricetulus griseus;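 also: CHO cells stably coexpressing TLR9 and MyD88 fusions from primary screen; compound exposure lasted 48 hours before viability readout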
# [33] = target: T4, Alkaline phosphatase, tissue-nonspecific isozyme (Homo sapiens, UniProt P05186); experiment: TNAP enzyme inhibition by screening hits, dose response, selectivity assay for mouse IAP inhibitor project, biochemical, human TNAP, uHTS hits (AID 488906); assay type: functional
# T4 sequence (P05186 whole entry): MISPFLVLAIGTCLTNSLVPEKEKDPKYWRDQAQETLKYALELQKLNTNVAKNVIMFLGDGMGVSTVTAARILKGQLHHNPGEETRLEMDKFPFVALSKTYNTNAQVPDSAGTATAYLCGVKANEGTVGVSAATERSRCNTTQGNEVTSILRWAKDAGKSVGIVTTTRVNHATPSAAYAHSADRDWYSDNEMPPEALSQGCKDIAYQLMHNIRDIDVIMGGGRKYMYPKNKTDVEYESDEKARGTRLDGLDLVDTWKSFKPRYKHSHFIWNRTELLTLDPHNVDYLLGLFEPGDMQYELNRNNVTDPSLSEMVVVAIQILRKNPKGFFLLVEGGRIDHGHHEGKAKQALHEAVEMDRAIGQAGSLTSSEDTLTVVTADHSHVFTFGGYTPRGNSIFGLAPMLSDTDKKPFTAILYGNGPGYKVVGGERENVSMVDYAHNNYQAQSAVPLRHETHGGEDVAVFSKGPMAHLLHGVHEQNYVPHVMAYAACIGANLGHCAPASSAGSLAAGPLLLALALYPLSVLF
# [34] = target: Intestinal-type alkaline phosphatase (Mus musculus, UniProt P24822); experiment: PubChem AID 488785; assay type: functional
# [35] = target: Intestinal-type alkaline phosphatase (Homo sapiens, UniProt P09923); experiment: inhibition of human intestinal alkaline phosphatase – biochemical, dose response (AID 488876); assay type: functional
smiles,measurement,setting,value
C/C(=C/CCC(C)[C@H]1CC[C@@]2(C)C3=C(CC[C@]12C)[C@@]1(C)CCC(=O)C(C)(C)[C@@H]1CC3)C(=O)O (stereo not given in full),IC50,[1],47.9 µM (active)
same,IC50,[2],2.04 µM (active)
same,EC50,[3],5.88 µM (active)
same,AC50,[4],2.12 µM (active)
same,IC50,[5],5.93 µM (active)
same,IC50,[6],5.45 µM (active)
O=C(Nc1ccc(CO)cc1)c1cnn2c(-c3ccccc3)ccnc12,Ki,[7],> 10 µM (inactive)
same,Ki,[8],> 10 µM (inactive)
same,Ki,[9],1.26 µM (active)
same,Ki,[10],0.794 µM (active)
same,Ki,[11],> 10 µM (inactive)
same,Ki,[12],> 10 µM (inactive)
same,Ki,[13],> 10 µM (inactive)
same,Ki,[14],> 10 µM (inactive)
same,Ki,[15],> 10 µM (inactive)
same,Ki,[16],> 7.94 µM (inactive)
same,Ki,[17],> 10 µM (inactive)
same,Ki,[18],> 10 µM (inactive)
same,Ki,[19],> 10 µM (inactive)
same,Ki,[20],2.51 µM (active)
O=C(N/N=C/c1ccccn1)c1cc(-c2ccc3ccccc3c2)[nH]n1,IC50,[21],28.7 µM (active)
same,IC50,[22],6.53 µM (active)
same,IC50,[23],> 67 µM (not active)
same,Absolute IC50 (XBP1),[24],10 µM
same,IC50,[25],> 100 µM (inactive)
same,IC50,[26],13 µM (active)
Nc1ccc2[nH]c(=O)cnc2c1,Ki,[27],12.6 µM (active)
same,Ki,[28],6.31 µM (active)
same,Ki,[29],7.94 µM (active)
same,Ki,[30],10 µM (active)
COc1cc(/C=C/C(O)=C/C(=O)/C=C/c2ccc(O)cc2)ccc1O [DEMETHOXYCURCUMIN],IC50,[31],8.09 µM (active)
same,IC50,[32],39.3 µM (inactive)
same,IC50,[33],> 100 µM (inactive)
same,IC50,[34],8.38 µM (active)
same,IC50,[35],> 100 µM (inactive)
